A short description of test [1]: Growth inhibition of human PC3 cells incubated for 96 hrs by MTS assay. The format is functional. Conditions: PC-3, 96 h. For orientation: Tetrazolium assays rely on reduction of a dye to a coloured formazan, in cell work by metabolically active cells.
Test [2] is described as follows: Growth inhibition of human PC3 cells incubated for 48 hrs by MTS assay. Conditions: PC-3, 48 h. The format is functional.
The target in test [3] is T1, Tubulin (Bos taurus) (UniProt Q6B856+Q862L2+Q862F3). Put plainly: Inhibition of [3H]colchicin binding to bovine brain tubulin incubated at 5 uM and 30 degreeC for 10 mins in presence of GTP by scintillation spectroscopic method.
Test [4] in a line: Growth inhibition of human MDA-MB-231 cells incubated for 96 hrs by MTS assay. The format is functional. Conditions: MDA-MB-231, 96 h.
Test [5] has as its target T1, Tubulin (Bos taurus). Kind of test: Inhibition of [3H]colchicin binding to bovine brain tubulin incubated at 50 uM and 30 degreeC for 10 mins in presence of GTP by scintillation spectroscopic method.
For test [6], the target named is T1, Tubulin (Bos taurus). Put plainly: Inhibition of GTP/glutamate-induced bovine brain tubulin polymerization at 5 uM by […].
A short description of test [7]: Growth inhibition of human 2008 cells incubated for 96 hrs by MTS assay. Format: functional. Particulars: Homo sapiens, 2008, 96 h.
Test [8] is described as follows: Growth inhibition of human 2008 cells incubated for 48 hrs by MTS assay. Format: functional. Conditions: Homo sapiens, 2008, 48 h.
A short description of test [9]: Growth inhibition of human MDA-MB-231 cells incubated for 48 hrs by MTS assay. Conditions: MDA-MB-231, 48 h. Format: functional.
The test system of test [10] is MCF7. Kind of test: Antimitotic activity in human MCF7 cells assessed as disruption of microtubules at 7.8 to 1000 nM measured after 14 to 16 hrs by immunohistochemical analysis. The format is functional, cell-based.
In test [11] the test system is MCF7. Put plainly: Antimitotic activity in human MCF7 cells assessed as induction of cell rounding at 7.8 to 1000 nM measured after 14 to 16 hrs by immunohistochemical analysis. The format is functional, cell-based.
Test [12] relates to MCF7. Kind of test: Antimitotic activity in human MCF7 cells assessed as chromatin condensation at 7.8 to 1000 nM measured after 14 to 16 hrs by immunohistochemical analysis. The format is functional, cell-based.
In test [13] the target is T1, Tubulin (Bos taurus). Put plainly: Inhibition of [3H]colchicine binding to bovine brain tubulin at 5 uM relative to control.
Test [14] deals with MCF7. Kind of test: Antimitotic activity in human MCF7 cells assessed as increase in mitotic index at 7.8 to 1000 nM measured after 14 to 16 hrs by immunohistochemical analysis. The format is functional, cell-based.
The subject of test [15] is MCF7. Put plainly: Antimitotic activity in human MCF7 cells assessed as increase in core histone phosphorylation at 7.8 to 1000 nM measured after 14 to 16 hrs by immunohistochemical analysis. The format is functional, cell-based.
For test [16], the target named is T1, Tubulin (Bos taurus). Kind of test: Inhibition of [3H]colchicine binding to bovine brain tubulin at 50 uM relative to control.

Activity calls are given as the source filed them. The calls are words filed in the database; no cut-off is given here.

As usually defined, the GI50 is the concentration that inhibits growth by half. On to `COc1ccc(/C=C\CC/C=C/C=C(\C)CCC(O)c2ccco2)c(OC)c1` (stereo not given), for which the GI50 in test [1] and in test [2] was above 50000 nM throughout.

In general, inhibition refers to the drop in the measured response relative to a control, in per cent. On to `COc1cc(/C=N\OC[C@H]2C[C@@H]2[C@@H]2C[C@]2(C)CCC(O)c2cccs2)cc(OC)c1OC` (stereo not given in full), for which the inhibition was -9% at Tubulin (Bos taurus) [3], -1% on Tubulin (Bos taurus) [5] and 26% against Tubulin (Bos taurus) [6]. In addition, the GI50 turned out to be 15000 nM in test [4]; 8800 nM in test [1]; 39000 nM in test [7]; 9900 nM in test [8]; 1200 nM in test [2]; 980 nM in test [9].

For the compound `COc1cc(/C=C\CC/C=C/C=C(\C)CCC(O)c2cc3ccccc3s2)cc(OC)c1OC` (stereo not given), the outcome in the test on MCF7 [10], in the test on MCF7 [11], with MCF7 [12], in the test on MCF7 [14] and in the test with MCF7 [15] was Active. Moreover, the GI50 was 1280 nM in test [4]; 1220 nM in [1]; 235 nM in test [7]; 360 to 380 nM in test [8]; 620 to 875 nM in test [2]; 83 to 230 nM in [9]. Also, the inhibition was 30.2% on Tubulin (Bos taurus) [13] and above 100% against Tubulin (Bos taurus) [6].

With `C=CC[C@@H](CC[C@@]1(C)C[C@H]1[C@H]1C[C@@H]1CC/C=C\[C@@H]1CSC([C@@H]2C[C@@H]2C)=N1)OC`, the inhibition on Tubulin (Bos taurus) [3] amounted to 9%; against Tubulin (Bos taurus) [6] it was 0%. In addition, the GI50 in test [4], in test [1], in test [7], in test [8], in test [2] and in test [9] was above 50000 nM each time.

With `COc1cc(/C=N\OC[C@@H]2C[C@H]2CCC(C)c2cccs2)cc(OC)c1OC` (stereo not given in full), the inhibition was -10% on Tubulin (Bos taurus) [3] and 18% at Tubulin (Bos taurus) [5]. In addition, the GI50 in test [4], in test [1], in test [7], in test [8], in [2] and in test [9] was above 50000 nM each time.

Take `COc1ccc(/C=C\CC/C=C/C=C(\C)CCC(O)c2cc(OC)ccc2OC)c(OC)c1` (stereo not given): the GI50 in test [1] and in test [2] was above 50000 nM in each case.

For the compound `COc1ccc(OC)c(C(O)CC/C(C)=C/C=C/CC/C=C\c2cc(OC)c(OC)c(OC)c2)c1` (stereo not given), it took 8730 nM to inhibit growth in [4] by half (GI50). Besides, the inhibition is 0.7% at Tubulin (Bos taurus) [13], 3.5% at Tubulin (Bos taurus) [6] and 20.3% on Tubulin (Bos taurus) [16].

Consider `C=CC[C@@H](CC/C(C)=C/C=C/CC/C=C\c1csc(C(C)(C)C)n1)OC`, for which the inhibition on Tubulin (Bos taurus) [3] was 38%; on Tubulin (Bos taurus) [5] it was 43%; against Tubulin (Bos taurus) [6], 100%.

As to `COc1cc(/C=C\CC/C=C/C=C(\C)CCC(O)c2cc3ccccc3o2)cc(OC)c1OC` (stereo not given), the GI50 in [4] is 204 nM; in [1], 1120 nM; in test [7], 199 nM; in test [2] it was 310 to 596 nM; in test [9], 86 to 120 nM. Besides, the inhibition turned out to be 12.5% at Tubulin (Bos taurus) [13], 74.6% against Tubulin (Bos taurus) [6] and 68.7% on Tubulin (Bos taurus) [16].

`COc1ccc(/C=C\CC/C=C/C=C(\C)CCC(O)c2ccccc2OC)c(OC)c1` (stereo not given): the GI50 in [1], in test [2] and in test [9] was above 50000 nM throughout.

Consider `COc1cc(/C=C\CC/C=C/C=C(\C)CCC(O)c2cccs2)cc(OC)c1OC` (stereo not given), for which the 50% growth inhibitory concentration (GI50) in test [4] is 214 nM; in test [1] it was 1020 nM; in [8], 280 to 311 nM; in test [2] it was 366 to 380 nM; in test [9], 151 to 280 nM. The figures for the inhibition at Tubulin (Bos taurus) [13], against Tubulin (Bos taurus) [6] and on Tubulin (Bos taurus) [16] were 9.9%, above 100% and 59%, respectively. The result in the test with MCF7 [14] was Active.

Turning to `COc1cc(/C=C\CC/C=C/C=C(\C)CCC(O)c2ccco2)cc(OC)c1OC` (stereo not given), the result in the test with MCF7 [14] was Active.

For the compound `C=CC[C@@H](CC/C(C)=C/C=C/CC/C=C\[C@@H]1CSC(C(C)(C)C)=N1)OC`, the results for the inhibition on Tubulin (Bos taurus) [3], on Tubulin (Bos taurus) [5] and against Tubulin (Bos taurus) [6] were 35%, 63% and 100%, respectively.

For `C=CC[C@@H](CC/C(C)=C/C=C/CC/C=C\c1coc(C(C)(C)C)n1)OC`, the inhibition at Tubulin (Bos taurus) [3] and at Tubulin (Bos taurus) [5] was 7% each time. The GI50 in [1] and in [7] was above 50000 nM throughout.

For the compound `COc1ccc(/C=C\CC/C=C/C=C(\C)CCC(O)c2cc3ccccc3s2)c(OC)c1` (stereo not given), the GI50 in test [1], in [2] and in [9] was above 50000 nM in each case. For the same compound, the inhibition on Tubulin (Bos taurus) [16] is below 26.4%.

For the compound `COc1cc(/C=N\OC/C=C/C=C(\C)CCC(O)c2cccs2)cc(OC)c1OC` (stereo not given), the inhibition at Tubulin (Bos taurus) [5] turned out to be 57%; on Tubulin (Bos taurus) [6], 100%.

For `C=CC[C@@H](CC/C(C)=C/C=C/CC/C=C\[C@@H]1CSC([C@@H]2C[C@@H]2C)=N1)OC` [CURACIN A], the inhibition at Tubulin (Bos taurus) [13] lay in the range of 84.9 to 95%; against Tubulin (Bos taurus) [6] it was 97.9 to 98%; on Tubulin (Bos taurus) [16], 96.2 to 97.7%. Moreover, the GI50 in test [9] lay within 96 to 186 nM.

With `C=CC[C@@H](CC/C(C)=C/C=C/CC/C=C\[C@@H]1COC(C(C)(C)C)=N1)OC`, the inhibition on Tubulin (Bos taurus) [3] was found to be 14%; at Tubulin (Bos taurus) [5], 80%; against Tubulin (Bos taurus) [6], 0%.

For the compound `C=CC[C@@H](CC/C(C)=C/C=C/CC/C=C\[C@@H]1COC(/C=C/c2ccccc2)=N1)OC`, at Tubulin (Bos taurus) [3], the inhibition was 9%.

For `COc1ccccc1C(O)CC/C(C)=C/C=C/CC/C=C\c1cc(OC)c(OC)c(OC)c1` (stereo not given), the GI50 in test [4] is 221 nM; in test [7] it was 268 nM; in test [8], 314 to 330 nM; in test [2], 620 to 933 nM; in [9], 243 to 340 nM. Moreover, the inhibition at Tubulin (Bos taurus) [13] is 5%; on Tubulin (Bos taurus) [6], above 100%; on Tubulin (Bos taurus) [16] it was 73%. In the test on MCF7 [14], the result was Active.

The values above are taken from ChEMBL document CHEMBL3882242, “Synthesis and biological evaluation of analogs of the antimitotic marine natural product curacin A” (2002).
